System: phrenic nerve/isolated diaphragm preparation
Settings: 10^−3 M; contractions induced by indirect stimulation via the phrenic nerve (0.1 to 7 volts, 0.3 ms, 0.1 Hz); cumulative concentrations
Protocol: Activity of manganese gluconate and of manganese chloride in a model of nerve/muscle junction (motor plate) obtained in a phrenic nerve/isolated diaphragm preparation: investigation of a myorelaxant effect:
The phrenic nerve and the diaphragm were carefully isolated and placed in a 50 ml tank filled with survival fluid (Krebs Henseleit liquid) maintained at a temperature of 37° C. and oxygenated with a mixture of 95% oxygen and 5% CO2.
The variations in the tension of the diaphragm were then recorded with an initial preloading of several grams.
After a relaxation period of 30 min., the diaphragm was stimulated indirectly via the phrenic nerve.
On each preparation, the effect of the test products was evaluated, in a first stage, on the contractions induced by indirect stimulation via stimulation of the phrenic nerve (0.1 to 7 volts, 0.3 ms, 0.1 Hz) at increasing and cumulative concentrations from 10^−6 M to 10^−3 M.

| Substance | % of inhibition (indirect stimulation) [%] |
| --- | --- |
| manganese chloride [MnCl2] | 10 |
| manganese gluconate | 25 |
